Source: patent US8309734B2 (Hoffmann-La Roche Inc., priority 2008, dated 2012)

Target: T1, human GPBAR1 receptor (Homo sapiens, UniProt Q8TDU6)
T1 construct: expressed in transfected cells
T1 sequence (Q8TDU6 1-330): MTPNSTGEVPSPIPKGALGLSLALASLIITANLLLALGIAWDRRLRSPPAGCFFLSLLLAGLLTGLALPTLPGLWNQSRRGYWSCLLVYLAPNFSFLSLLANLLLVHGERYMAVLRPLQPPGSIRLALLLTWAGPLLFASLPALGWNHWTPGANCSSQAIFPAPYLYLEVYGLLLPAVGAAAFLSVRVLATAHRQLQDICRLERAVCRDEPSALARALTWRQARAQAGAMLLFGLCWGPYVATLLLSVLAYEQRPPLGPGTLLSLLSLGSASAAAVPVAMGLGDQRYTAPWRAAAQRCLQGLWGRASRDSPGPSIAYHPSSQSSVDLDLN
Experiment: functional cAMP assay in CHO-dhfr(minus) cells expressing human GPBAR1 receptors
Assay type: cell-based
Conditions: cAMP increase (TR-FRET) in CHO-dhfr(minus) cells expressing human GPBAR1; compounds incubated 30 min at 30° C.
Method: The final clone was verified by DNA sequence analysis. The plasmid was transfected into CHO cells deficient in dihydrofolate reductase activity (CHO-dhfr-) using Lipofectamine plus (Invitrogen). Clones were isolated in limited dilution conditions and identified by activities in the cAMP assay using lithocholic acid as agonist.
The growth medium was exchanged with Krebs Ringer Bicarbonate buffer with 1 mM IBMX and incubated at 30° C. for 30 mM. Compounds were added to a final assay volume of 100 μl and incubated for 30 min at 30° C. […] The time-resolved energy transfer is measured by a TRF reader (Evotec Technologies GmbH, Hamburg Germany), equipped with a ND:YAG laser as excitation source. The plate is measured twice with the excitation at 355 nm and at the emission with a delay of 100 ns and a gate of 100 ns, total exposure time 10s at 730 (bandwith 30 nm) or 645 nm (bandwith 75 nm), respectively.
EC50 values were determined using Activity Base analysis (ID Business Solution, Limited). […] Specificity for GPBAR1 was tested in non-transfected CHO cells in the same assay as above.

O=C(c1cccnc1Oc1cc(Cl)ccc1Cl)N1CCCc2ccc(Cl)cc21 [Example 33, (7-Chloro-3,4-dihydro-2H-quinolin-1-yl)-[2-(2,5-dichloro-phenoxy)-pyridin-3-yl]-methanone]
EC50: 203 nM

O=C(c1cccnc1Oc1cc(Cl)ccc1Cl)N1CCCc2ccc(F)cc21 [Example 34, [2-(2,5-Dichloro-phenoxy)-pyridin-3-yl]-(7-fluoro-3,4-dihydro-2H-quinolin-1-yl)-methanone]
EC50: 58 nM

CN(C(=O)c1cccnc1Oc1cc(Cl)ccc1Cl)c1ccccc1 [Example 35, 2-(2,5-Dichloro-phenoxy)-N-methyl-N-phenyl-nicotinamide]
EC50: 283 nM

O=C(c1cccnc1Oc1cc(Cl)ccc1Cl)N1CCOc2ccccc21 [Example 36, [2-(2,5-Dichloro-phenoxy)-pyridin-3-yl]-(2,3-dihydro-benzo[1,4]oxazin-4-yl)-methanone]
EC50: 135 nM

O=C(c1cccnc1Oc1cc(Cl)ccc1Cl)N1CCCc2cc(F)ccc21 [Example 37, [2-(2,5-Dichloro-phenoxy)-pyridin-3-yl]-(6-fluoro-3,4-dihydro-2H-quinolin-1-yl)-methanone]
EC50: 28 nM

O=C(c1cccnc1Oc1cc(Cl)ccc1Cl)N1CCCc2cc(F)c(F)cc21 [Example 38, [2-(2,5-Dichloro-phenoxy)-pyridin-3-yl]-(6,7-difluoro-3,4-dihydro-2H-quinolin-1-yl)-methanone]
EC50: 57 nM

O=C(c1cccnc1Oc1cc(Cl)ccc1Cl)N1CCSc2ccccc21 [Example 39, [2-(2,5-Dichloro-phenoxy)-pyridin-3-yl]-(2,3-dihydro-benzo[1,4]thiazin-4-yl)-methanone]
EC50: 29 nM

CN(C(=O)c1cccnc1Oc1cc(Cl)ccc1Cl)c1ccccc1Cl [Example 40, N-(2-Chloro-phenyl)-2-(2,5-dichloro-phenoxy)-N-methyl-nicotinamide]
EC50: 103 nM

Cc1ccccc1N(C)C(=O)c1cccnc1Oc1cc(Cl)ccc1Cl [Example 41, 2-(2,5-Dichloro-phenoxy)-N-methyl-N-o-tolyl-nicotinamide]
EC50: 33 nM

COc1ccccc1N(C)C(=O)c1cccnc1Oc1cc(Cl)ccc1Cl [Example 42, 2-(2,5-Dichloro-phenoxy)-N-(2-methoxy-phenyl)-N-methyl-nicotinamide]
EC50: 20 nM

CN(C(=O)c1cccnc1Oc1cc(Cl)ccc1Cl)c1ccccc1-c1ccccc1 [Example 43, N-Biphenyl-2-yl-2-(2,5-dichloro-phenoxy)-N-methyl-nicotinamide]
EC50: 496 nM

O=C(c1cccnc1Oc1cc(Cl)ccc1Cl)N1CCCc2cc(F)cc(F)c21 [Example 44, [2-(2,5-Dichloro-phenoxy)-pyridin-3-yl]-(6,8-difluoro-3,4-dihydro-2H-quinolin-1-yl)-methanone]
EC50: 44 nM

CCc1ccccc1N(C)C(=O)c1cccnc1Oc1cc(Cl)ccc1Cl [Example 45, 2-(2,5-Dichloro-phenoxy)-N-(2-ethyl-phenyl)-N-methyl-nicotinamide]
EC50: 92 nM

CN(C(=O)c1cccnc1Oc1cc(Cl)ccc1Cl)c1ncccc1Cl [Example 46, N-(3-Chloro-pyridin-2-yl)-2-(2,5-dichloro-phenoxy)-N-methyl-nicotinamide]
EC50: 905 nM

CN(C(=O)c1cccnc1Oc1cc(Cl)ccc1Cl)c1cnccc1Cl [Example 47, N-(4-Chloro-pyridin-3-yl)-2-(2,5-dichloro-phenoxy)-N-methyl-nicotinamide]
EC50: 1250 nM

COc1ncccc1N(C)C(=O)c1cccnc1Oc1cc(Cl)ccc1Cl [Example 48, 2-(2,5-Dichloro-phenoxy)-N-(2-methoxy-pyridin-3-yl)-N-methyl-nicotinamide]
EC50: 66 nM

Cc1c(Cl)cccc1N(C)C(=O)c1cccnc1Oc1cc(Cl)ccc1Cl [Example 49, N-(3-Chloro-2-methyl-phenyl)-2-(2,5-dichloro-phenoxy)-N-methyl-nicotinamide]
EC50: 173 nM

Cc1ccc(Cl)cc1N(C)C(=O)c1cccnc1Oc1cc(Cl)ccc1Cl [Example 50, N-(5-Chloro-2-methyl-phenyl)-2-(2,5-dichloro-phenoxy)-N-methyl-nicotinamide]
EC50: 631 nM

Cc1cccc(Cl)c1N(C)C(=O)c1cccnc1Oc1cc(Cl)ccc1Cl [Example 51, N-(2-Chloro-6-methyl-phenyl)-2-(2,5-dichloro-phenoxy)-N-methyl-nicotinamide]
EC50: 59 nM

Cc1cccc(C)c1N(C)C(=O)c1cccnc1Oc1cc(Cl)ccc1Cl [Example 52, 2-(2,5-Dichloro-phenoxy)-N-(2,6-dimethyl-phenyl)-N-methyl-nicotinamide]
EC50: 116 nM

COc1cccc(C)c1N(C)C(=O)c1cccnc1Oc1cc(Cl)ccc1Cl [Example 53, 2-(2,5-Dichloro-phenoxy)-N-(2-methoxy-6-methyl-phenyl)-N-methyl-nicotinamide]
EC50: 321 nM

COc1ccc(F)cc1N(C)C(=O)c1cccnc1Oc1cc(Cl)ccc1Cl [Example 54, 2-(2,5-Dichloro-phenoxy)-N-(5-fluoro-2-methoxy-phenyl)-N-methyl-nicotinamide]
EC50: 35 nM

COc1ccc(Cl)cc1N(C)C(=O)c1cccnc1Oc1cc(Cl)ccc1Cl [Example 55, N-(5-Chloro-2-methoxy-phenyl)-2-(2,5-dichloro-phenoxy)-N-methyl-nicotinamide]
EC50: 641 nM

Cc1cc(Cl)ccc1N(C)C(=O)c1cccnc1Oc1cc(Cl)ccc1Cl [Example 56, N-(4-Chloro-2-methyl-phenyl)-2-(2,5-dichloro-phenoxy)-N-methyl-nicotinamide]
EC50: 1390 nM

Cc1cccc(N(C)C(=O)c2cccnc2Oc2cc(Cl)ccc2Cl)c1C [Example 57, 2-(2,5-Dichloro-phenoxy)-N-(2,3-dimethyl-phenyl)-N-methyl-nicotinamide]
EC50: 385 nM

Cc1ccc(N(C)C(=O)c2cccnc2Oc2cc(Cl)ccc2Cl)c(C)c1 [Example 58, 2-(2,5-Dichloro-phenoxy)-N-(2,4-dimethyl-phenyl)-N-methyl-nicotinamide]
EC50: 758 nM

COc1ccc(C)cc1N(C)C(=O)c1cccnc1Oc1cc(Cl)ccc1Cl [Example 59, 2-(2,5-Dichloro-phenoxy)-N-(2-methoxy-5-methyl-phenyl)-N-methyl-nicotinamide]
EC50: 1550 nM

COc1cccc(OC)c1N(C)C(=O)c1cccnc1Oc1cc(Cl)ccc1Cl [Example 60, 2-(2,5-Dichloro-phenoxy)-N-(2,6-dimethoxy-phenyl)-N-methyl-nicotinamide]
EC50: 1550 nM

Cc1cc(Cl)ncc1N(C)C(=O)c1cccnc1Oc1cc(Cl)ccc1Cl [Example 61, N-(6-Chloro-4-methyl-pyridin-3-yl)-2-(2,5-dichloro-phenoxy)-N-methyl-nicotinamide]
EC50: 1980 nM

CN(C(=O)c1cccnc1Oc1cc(Cl)ccc1Cl)c1ccccc1C#N [Example 62, N-(2-Cyano-phenyl)-2-(2,5-dichloro-phenoxy)-N-methyl-nicotinamide]
EC50: 820 nM

CN(C(=O)c1cccnc1Oc1cc(Cl)ccc1Cl)c1ccccc1F [Example 63, 2-(2,5-Dichloro-phenoxy)-N-(2-fluoro-phenyl)-N-methyl-nicotinamide]
EC50: 170 nM

CN(C(=O)c1cccnc1Oc1cc(Cl)ccc1Cl)c1c(F)cccc1F [Example 64, 2-(2,5-Dichloro-phenoxy)-N-(2,6-difluoro-phenyl)-N-methyl-nicotinamide]
EC50: 155 nM

CN(C(=O)c1cccnc1Oc1cc(Cl)ccc1Cl)c1ccccc1-n1cccc1 [Example 65, 2-(2,5-Dichloro-phenoxy)-N-methyl-N-(2-pyrrol-1-yl-phenyl)-nicotinamide]
EC50: 357 nM
